Measured values as given in patent US9604973B2, “Anti-cancer polyketide compounds” (priority 2012, dated 2017).
“Also recorded” adds a separate entry of the source.

How the values were obtained:
Format in all cases: cell-based, human
[1] = system: CLL cells; assay: Flow cytometry, % specific induced apoptosis (DiOC6/PI) in primary CLL cells; conditions: 48 hours
Experimental: FIG. 20A-20C: FD-895 and PLAD induce apoptosis in CLL cells but not in normal lymphocytes with a TP53 independent activity: Primary leukemia B cells from CLL (FIG. 20A) patient with del (17p) and Tp53 mutation, (FIG. 20B) patient with wild type p53 and sensitive to F-Ara-A and (FIG. 20C) normal lymphocytes from healthy donor were incubated with FD-895, PLAD and F-Ara-A (0, 10, 100, 1000 10,000 nM) for 48 hours.
FIG. 21: FD-895 and PLAD induce apoptosis in CLL cells not ONLY independently of Tp53 but also independently of SF3B1 mutational status: Primary leukemia B cells from CLL patient with SF3B1 wild, SF3B1 mutation, 17p DEL and normal B and T lymphocytes from healthy donor were incubated with FD-895 and PLAD with 100 nM for 48 hours. After incubation, the samples were harvested and % SIA was measured by flow cytometry as described above. […] Each dots represents number of CLL patient sample and normal B or T cells.
Peripheral blood mononuclear cells (PBMC) from patients with CLL were obtained from the CLL Research Consortium (CRC) tissue bank. The blood samples were collected after obtaining a written informed consent from the patients under a protocol approved by the institutional review board of The University of California, San Diego. All patients met criteria for CLL.^1 CLL B cells and PBMCs were separated from heparinized venous blood of the B-CLL patients by density gradient centrifugation using Ficoll-Hypaque (GE healthcare) as described earlier.^2 The samples that were used had more than 95% positive cells for CD19 and CD5+, as assessed by flow cytometry. CLL B cells were maintained in RPMI 1640 medium supplemented with 10% FBS, 2 mM L-glutamine, and 100 U/mL of penicillin and 100 μg/mL of streptomycin at 37° C. in an atmosphere of 5% CO2.
(§1) Apoptotic and viable cells were discriminated via flow cytometry of cells stained with 3,3′ dihexyloxacarbocyanine iodide (DiOC6) (Molecular Probes, Eugene, Oreg., USA) and propidium iodine (Sigma, St Louis, Mo., USA), as described.^3 Using this method viable cells exclude PI and stain brightly positive for DiOC6.

[2] = system: RAJI; assay: Flow cytometry cell viability/% SIA in leukemia cell line; conditions: 0-10,000 nM, 48 hours
Experimental: (§2) FIG. 22: Activity of FD-895, PLAD and F-Ara-A in different human leukemia cell lines: Different leukemia cell lines including MEC1, RAJI and JURKAT were incubated with FD-895, PLAD and F-Ara-A (0, 10, 100, 1000, 10,000 nM) for 48 hours. The samples were harvested and cell viability was measured by flow cytometry using propidium iodine (PI) exclusion and mitochondrial membrane potential changes using DiOC6. This experiments was performed 2 times independently.
(§3) The leukemia cell lines, MEC1, RAJI and JURKAT were maintained in CLL B cells were maintained in RPMI 1640 medium supplemented with 10% FBS, 2 mM L-glutamine, and 100 U/mL of penicillin and 100 μg/mL of streptomycin at 37° C. in an atmosphere of 5% CO2.
as §1
(§4) We further examined the activity of FD-895, PLAD and F-Ara-A in different leukemia cell lines like MEC1 (B chronic lymphocytic leukemia cell line), RAJI (B lymphocyte cell line), JURKAT (T lymphocyte cell line) as to know whether these compounds induce apoptosis or not. We incubated cells with FD-895, PLAD and F-Ara-A with 0, 10, 100, 1000 or 10,000 nM for 48 hours and measured the % SIA by using flow cytometry.

[3] = system: MEC1; assay: as above; conditions: MEC1, 0-10,000 nM, 48 hours
Experimental: as §2, §3, §1, §4

[4] = system: JURKAT; assay: as above; conditions: 0-10,000 nM, 48 hours
Experimental: as §2, §3, §1, §4

[5] = system: DNAJB1; assay: RT-PCR of spliced and unspliced mRNA (intron retention) in CLL cells; conditions: 4 hours, FD-895, PLAD 10, 100 nM, bendamustine 33, 100 μM, F-Ara-A 3, 10, 33 μM
Experimental: FIG. 23: FD-895 and PLAD induced inhibition of splicing in CLL: RT-PCR for analysis of spliced and unspliced mRNAs. CLL cells treated with FD-895, PLAD (10, 100 nM), chemotherapeutic agent like bendamustine (33, 100 μM) and F-Ara-A (3, 10, 33 μM) for 4 hours. RT-PCR for DNAJB1 was performed with primers spanning two exons; products were analyzed on ethidium bromide-stained agarose gels (2%) to visualize the correct size of the unspliced mRNAs. […] The exon structure of DNAJB1 gene is indicated. G, human genomic DNA was used as a control; U, unspliced mRNA; S, spliced mRNA.
CLL cells were treated with 10 and 100 nM of FD-895 and PLAD, 33 and 100 μM of bendamustine and 3, 10, and 33 μM of F-Ara-A for 4 h. Normal B and CLL cells were treated with 100 nM of FD-895 and PLAD and 10 μM of F-Ara-A for 15 minutes, 30 minutes, 1, 2 and 4 h. Total RNA was extracted using mirVana™ miRNA isolation kit (Ambion Life Technology, USA). After DNase treatment, 200 ng total RNA was reverse-transcribed using a SuperScript™ III first-strand synthesis system (Invitrogen). PCR was performed on 10 ng of the obtained cDNA (or human genomic DNA as a control) in 25 μl of reaction mixture containing Plantinum® PCR SuperMix High-fidelity (Invitrogen Life Technology, USA), and 0.1 μM of each primer of the appropriate pair.
PCR conditions were 94° C. for 3 min; 35 cycles of 94° C. for 30 s, 60° C. for 30 s, and 72° C. for 1 min; followed by 72° C. for 5 min. PCR products were separated on a 2% agarose gel and stained with ethidium bromide.

[6] = CLL patients with 17p DEL, 100 nM
[7] = CLL patients with SF3B1 mutation, 100 nM
[8] = CLL patients with SF3B1 wild, 100 nM
[9] = CLL patients with Tp53 mutation (so in the source)
[10] = CLL patients with del (17p), 0-10,000 nM

| Molecule | apoptosis (% SIA) [1, 6] | apoptosis (% SIA) [1, 7] | apoptosis (% SIA) [1, 8] | apoptosis (% SIA) [1, 9] | apoptosis (% SIA) [1, 10] | cell death (% SIA) [2] | cell death (% SIA) [3] | cell death (% SIA) [4] | intron retention/splicing inhibition of DNAJB1 [5] |
| --- | --- | --- | --- | --- | --- | --- | --- | --- | --- |
| CCC(OC)C(C)C1OC1C(O)C(C)/C=C/C=C(\C)C1OC(=O)CC(O)CCC(C)(O)C(OC(C)=O)/C=C/C1C (stereo not drawn) [FD-895] | significant cells death; also recorded: induced apoptosis | significant cells death; also recorded: induced apoptosis | significant cells death | significant death | significant killing | high significant cell death | did not show significant apoptosis | high significant cell death | showed intron retention at low concentration |
| Pladienolide B | significant cells death; also recorded: induced apoptosis | significant cells death; also recorded: induced apoptosis | significant cells death | significant death | significant killing | high significant cell death | did not show significant apoptosis | high significant cell death | showed intron retention at low concentration |
